The record followed here is paper PMC7802075 (ACS Infectious Diseases, 2020).

What is called inhibition is the change of the read-out against control, counted positive when it falls.

Structures can show the parent of a compound that is named as a salt. Where a SMILES comes first, the peptide text is derived from it. The star is where a group is joined. Tfa = O=C(C(F)(F)F)*

For one test, the target named is T1, LmjIPCS (inositol phosphorylceramide synthase from L. major) (Leishmania major, UniProt E9AFX2).
T1 sequence (E9AFX2 1-338): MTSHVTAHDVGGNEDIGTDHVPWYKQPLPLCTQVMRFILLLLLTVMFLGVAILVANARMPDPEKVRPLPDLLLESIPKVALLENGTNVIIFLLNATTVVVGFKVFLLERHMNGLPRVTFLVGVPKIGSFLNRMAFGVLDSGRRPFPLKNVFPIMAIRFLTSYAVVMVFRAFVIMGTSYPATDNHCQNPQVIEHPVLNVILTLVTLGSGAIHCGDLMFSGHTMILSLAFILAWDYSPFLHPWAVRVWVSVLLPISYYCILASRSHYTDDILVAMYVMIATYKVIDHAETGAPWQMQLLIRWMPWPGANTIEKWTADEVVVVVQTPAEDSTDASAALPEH
The test can be described thus: biochemical. The test is classed as biochemical. More on the design: inhibition: dose or concentration left out as unconfirmed.
Conditions: not given
Take `CN(C)[C@@H]1C(O)=C(C(N)=O)C(=O)[C@@]2(O)C(O)=C3C(=O)c4c(O)cccc4[C@@](C)(O)[C@H]3C[C@@H]12` [TETRACYCLINE]: the “20mM inhibition LmjIPCS” value was determined as 36%. On the same count and under the same terms, the figure for `COc1ccc2cc1Oc1ccc(cc1)C[C@H]1c3cc(c(OC)cc3CCN1C)Oc1c(OC)c(OC)cc3c1[C@H](C2)N(C)CC3` [TETRANDRINE] is 65%.

Regarding `Cc1cccc(N(C)C(=S)Oc2ccc3ccccc3c2)c1` [TOLNAFTATE], the “20mM inhibition LmjIPCS” value is 62%. Consider `CC1(C)O[C@@H]2C[C@H]3[C@@H]4CCC5=CC(=O)C=C[C@]5(C)[C@@]4(F)[C@@H](O)C[C@]3(C)[C@]2(C(=O)CO)O1` [TRIAMCINOLONE ACETONIDE], for which the “20mM inhibition LmjIPCS” value worked out at 37%. On the same count and under the same terms, the same measure for `OC(CCN1CCCCC1)(c1ccccc1)C1CCCCC1` (stereo not shown) [TRIHEXYPHENIDYL]: 57%; for `Cc1ccc(/C(=C\CN2CCCC2)c2ccccn2)cc1` [TRIPROLIDINE]: 42%. As to `N[C@@H](Cc1c[nH]c2ccccc12)C(=O)O` [TRYPTOPHAN], the “20mM inhibition LmjIPCS” value is 34%. Consider `CC(C)(C)NCC(O)c1ccccc1Cl` (stereo not shown) [TULOBUTEROL], for which the “20mM inhibition LmjIPCS” value was 51%.

Staying with this test, now noted: NINDS set screen, compound at 20mM (so in the source).
In the case of `N#Cc1c(Cl)c(Cl)c(Cl)c(C#N)c1Cl` [TETRACHLOROISOPHTHALONITRILE], the “20mM inhibition LmjIPCS” value was 15%.

The same test, now with this note: NINDS set screen, single concentration 20mM as printed.
In the case of `O=C(O)CN(CCN(CC(=O)O)CC(=O)O)CC(=O)O.[Na+].[Na+].[Na+]` [TRISODIUM ETHYLENEDIAMINE TETRACETATE], the “20mM inhibition LmjIPCS” value is recorded as -4.23%.

Staying with this test, now noted: NINDS set screen, single concentration printed as 20mM.
With `c1ccc2[nH]c(-c3cscn3)nc2c1` [THIABENDAZOLE], the “20mM inhibition LmjIPCS” value is on record as 41%. As to `Cc1cc2cc3c(C)cc(=O)oc3c(C)c2o1` [TRIOXSALEN], the “20mM inhibition LmjIPCS” value was 42%.

Still in this test, the particulars now being: NINDS set screen; read-out: inhibition LmjIPCS.
Consider `CCCCNc1ccc(C(=O)OCCN(C)C)cc1` [TETRACAINE], for which the inhibition is 18%.

As to `CN1CCN(CC/C=C2/c3ccccc3Sc3ccc(S(=O)(=O)N(C)C)cc32)CC1` [THIOTHIXENE], the inhibition is -24%. Still for that read-out and setting: the same measure for `CCN(CC)CCNC(=O)c1cc(S(C)(=O)=O)ccc1OC` [TIAPRIDE]: -5%; for `CC1(C)O[C@@H]2[C@@H](CO[C@@]3(COS(N)(=O)=O)OC(C)(C)O[C@@H]23)O1` [TOPIRAMATE]: 16%; for `CC(=O)OCC(COC(C)=O)OC(C)=O` [TRIACETIN]: 29%. Turning to `C[C@]12C=CC(=O)C=C1CC[C@H]1[C@@H]3C[C@@H](O)[C@](O)(C(=O)CO)[C@@]3(C)C[C@H](O)[C@@]12F` [TRIAMCINOLONE], the inhibition was -1.57%. Same read-out and setting: the same measure for `COc1cc(C(=O)NCc2ccc(OCCN(C)C)cc2)cc(OC)c1OC` [TRIMETHOBENZAMIDE]: 28%.

The same test, now with this note: read-out: 20mM inhibition LmjIPCS.
Turning to `CC[C@H]1OC(=O)[C@H](C)C(=O)[C@H](C)[C@@H](O[C@@H]2O[C@H](C)C[C@H](N(C)C)[C@H]2O)[C@](C)(OC)C[C@@H](C)C(=O)[C@H](C)[C@H]2N(CCCCn3cnc(-c4cccnc4)c3)C(=O)O[C@]12C` [TELITHROMYCIN], the inhibition at 20000 µM came out at 3.66%. The same measure, in the same setting: the figure for `c1ccc2c(c1)CCCC2C1=NCCN1` (stereo not shown) [TETRAHYDROZOLINE] is 8%; for `Cn1cnc2c1c(=O)[nH]c(=O)n2C` [THEOBROMINE] it is 24%; for `Cn1c(=O)c2[nH]cnc2n(C)c1=O` [THEOPHYLLINE] it is 11%. Still for that read-out and setting: the figure for `CS(=O)(=O)c1ccc([C@@H](O)[C@@H](CO)NC(=O)C(Cl)Cl)cc1` [THIAMPHENICOL] is 0.377%; for `S=P(N1CC1)(N1CC1)N1CC1` [THIOTEPA] it is 11%; for `NC(Cc1cc(I)c(Oc2cc(I)c(O)c(I)c2)c(I)c1)C(=O)O` (stereo not shown) [THYROXINE] it is 12%. On to `CCS(=O)(=O)CCn1c([N+](=O)[O-])cnc1C` [TINIDAZOLE], for which the inhibition at 20000 µM came out at 15%. Same read-out and setting: the same measure for `Cc1ccc(S(=O)(=O)NC(=O)NN2CCCCCC2)cc1` [TOLAZAMIDE]: -5%; for `c1ccc(CC2=NCCN2)cc1` [TOLAZOLINE]: 2.77%. Still for that read-out and setting: the figure for `Cc1ccc(C(=O)c2ccc(CC(=O)O)n2C)cc1` [TOLMETIN] is 4%. On to `C[C@H]1CC[C@]2(NC1)O[C@H]1C[C@H]3[C@@H]4CC[C@H]5C[C@@H](O[C@@H]6O[C@H](CO)[C@H](O[C@@H]7O[C@H](CO)[C@@H](O)[C@H](O[C@@H]8OC[C@@H](O)[C@H](O)[C@H]8O)[C@H]7O[C@@H]7O[C@H](CO)[C@@H](O)[C@H](O)[C@H]7O)[C@H](O)[C@H]6O)CC[C@]5(C)[C@H]4CC[C@]3(C)[C@H]1[C@@H]2C` [TOMATINE], for which the inhibition at 20000 µM stood at 12%. The same measure, in the same setting: the figure for `Cc1cccc(Nc2ccncc2S(=O)(=O)NC(=O)NC(C)C)c1` [TORSEMIDE] is 29%.

For the compound `CCOC(=O)[C@H](CCc1ccccc1)N[C@@H](C)C(=O)N1[C@H](C(=O)O)C[C@H]2CCCC[C@@H]21` [TRANDOLAPRIL], the inhibition at 20000 µM was determined as 7.54%. Still for that read-out and setting: the same measure for `CC(C)(C)C(=O)C(Oc1ccc(Cl)cc1)n1cncn1` (stereo not shown) [TRIADIMEFON]: 17%; for `CC(=O)OCC(=O)[C@@]1(O)[C@H](OC(C)=O)C[C@H]2[C@@H]3CCC4=CC(=O)C=C[C@]4(C)[C@@]3(F)[C@@H](O)C[C@@]21C` [TRIAMCINOLONE DIACETATE]: 10%.

In the case of `C[C@@H]1O[C@@H](OC[C@H]2O[C@@H](Oc3c(-c4ccc(OCCO)c(OCCO)c4)oc4cc(OCCO)cc(O)c4c3=O)[C@H](O)[C@@H](O)[C@@H]2O)[C@H](O)[C@H](O)[C@H]1O` [TROXERUTIN], the inhibition at 20000 µM is 20%. The same measure, in the same setting: the figure for `NCCc1c[nH]c2ccccc12` [TRYPTAMINE] is 27%; for `CCCCCC(C)N` (stereo not shown) [TUAMINOHEPTANE] it is 26%. `CC[C@H]1OC(=O)C[C@@H](O)[C@H](C)[C@@H](O[C@@H]2O[C@H](C)[C@@H](O[C@H]3C[C@@](C)(O)[C@@H](O)[C@H](C)O3)[C@H](N(C)C)[C@H]2O)[C@@H](CC=O)C[C@@H](C)C(=O)/C=C/C(C)=C/[C@@H]1CO[C@@H]1O[C@H](C)[C@@H](O)[C@@H](OC)[C@H]1OC` [TYLOSIN]: the inhibition at 20000 µM worked out at 5%.

In the case of `CC(C)[C@H](NC(=O)[C@H](Cc1ccc(O)cc1)NC(=O)[C@@H](NC(=O)C(F)(F)F)C(C)C)C(=O)O` [Tfa-VAL-TYR-VAL-OH] (Tfa-Val-Tyr-Val-OH), the inhibition at 20000 µM amounted to 7.54%.

Turning to `CC(=O)c1c(O)c(C)c(O)c2c1OC1=CC(=O)C(C(C)=O)C(=O)C12C` (stereo not shown) [USNIC ACID], the inhibition at 20000 µM was 29%. Turning to `CCCCC(=O)Oc1ccccc1C(=O)O` [VALERYL SALYCILATE], the inhibition at 20000 µM was 10%.

Turning to `CN[C@H](CC(C)C)C(=O)N[C@H]1C(=O)N[C@@H](CC(N)=O)C(=O)N[C@H]2C(=O)N[C@H]3C(=O)N[C@H](C(=O)N[C@H](C(=O)O)c4cc(O)cc(O)c4-c4cc3ccc4O)[C@H](O)c3ccc(c(Cl)c3)Oc3cc2cc(c3O[C@@H]2O[C@H](CO)[C@@H](O)[C@H](O)[C@H]2O[C@H]2C[C@](C)(N)[C@H](O)[C@H](C)O2)Oc2ccc(cc2Cl)[C@H]1O` [VANCOMYCIN], the inhibition at 20000 µM stood at 31%.

The test is the same for the next values; noted with them: read-out: inhibition LmjIPCS.
With `COc1cc([C@@H]2c3cc4c(cc3[C@@H](O[C@@H]3O[C@@H]5CO[C@@H](c6cccs6)O[C@H]5[C@H](O)[C@H]3O)[C@H]3COC(=O)[C@H]23)OCO4)cc(OC)c1O` [TENIPOSIDE], the inhibition was determined as 23%. Turning to `CN1C(C(=O)Nc2ccccn2)=C(O)c2sccc2S1(=O)=O` [TENOXICAM], the inhibition was found to be 7.55%. Still for that read-out and setting: the same measure for `COc1cc2c(cc1OC)[C@@H]1Cc3ccc(OC)c(OC)c3CN1CC2` [TETRAHYDROPALMATINE]: 29%.

For the compound `Nc1nc2nc[nH]c2c(=S)[nH]1` [THIOGUANINE], the inhibition was 6%. `CC(C)(C)NC[C@H](O)COc1nsnc1N1CCOCC1` [TIMOLOL]: the inhibition stood at 22%.

For the compound `CCCCNC(=O)NS(=O)(=O)c1ccc(C)cc1` [TOLBUTAMIDE], the inhibition amounted to 30%. On the same count and under the same terms, the same measure for `NS(=O)(=O)c1cc2c(cc1Cl)NC(C(Cl)Cl)NS2(=O)=O` (stereo not shown) [TRICHLORMETHIAZIDE]: 20%; for `CO[C@H]1C[C@H](O[C@H]2[C@H](C)[C@@H](O[C@@H]3O[C@H](C)C[C@H](N(C)C)[C@H]3OC(C)=O)[C@@H](C)C[C@@]3(CO3)C(=O)[C@H](C)[C@@H](OC(C)=O)[C@@H](C)[C@@H](C)OC(=O)[C@@H]2C)O[C@@H](C)[C@@H]1OC(C)=O` [TROLEANDOMYCIN]: 18%; for `C[C@H](CCC(=O)O)[C@H]1CC[C@H]2[C@@H]3[C@@H](O)C[C@@H]4C[C@H](O)CC[C@]4(C)[C@H]3CC[C@]12C` [URSODIOL]: 8%.

As to `CCCC(CCC)C(=O)O` [VALPROATE SODIUM], the inhibition came out at 0.506%.

Still in this test, the particulars now being: screening of NINDS set, sheet Screen 1; read-out: inhibition LmjIPCS.
Take `CC(C)(C)NCC(O)c1cc(O)cc(O)c1` (stereo not shown) [TERBUTALINE]: the inhibition was 9%.

In the case of `O=c1oc2cc(O)ccc2s1` [TIOXOLONE], the inhibition was found to be 3%. Still for that read-out and setting: the figure for `CCOC(=O)NNc1nncc2ccccc12` [TODRALAZINE] is 2%; for `Cc1c(Cl)cccc1Nc1ccccc1C(=O)O` [TOLFENAMIC ACID] it is 4.68%. For the compound `NC[C@H]1CC[C@H](C(=O)O)CC1` [TRANEXAMIC ACID], the inhibition came out at 2.2%. Same read-out and setting: the same measure for `CC(CN(C)C)CN1c2ccccc2CCc2ccccc21` (stereo not shown) [TRIMIPRAMINE]: 2%; for `Cc1onc(-c2ccccc2)c1-c1ccc(S(N)(=O)=O)cc1` [VALDECOXIB]: 3.24%; for `CC(C)[C@H](N)C(=O)N[C@@H](Cc1c[nH]c2ccccc12)C(=O)O` [VALYLTRYPTOPHAN] (H-Val-Trp-OH): 6%.
